How the values were obtained:
[1] = test system: myocardial infarction mouse model; assay: Myocardial infarction (MI) mouse model, left coronary artery ligation; assay type: in vivo; details: MI mice
Protocol: Animals were housed in a climate-controlled facility with a 12-h/12-h light/dark cycle and provided free access to food and water. Experiments were approved by the Darwin ethics committee of Sorbonne University, and conducted according to the INSERM animal care and use committee guidelines. The NGAL inhibitor GP1 was incorporated in regular chow (A04, Safe, Augy, France) at the dose of 625 mg GP1/kg of chow to achieve a low dose of 100 mg/kg/day of GP1 administered to the mice (based on a daily consumption of 4 g of chow).
Myocardial infarction (MI) was induced as previously described. Briefly, Chronic Heart Failure (CHF) resulted from left ventricle MI that was induced by left coronary artery ligation in 8 week-old male mice. Mice were anesthetized with intraperitoneal injections of ketamine (90 mg/kg, Merial, France) and xylazine (3.6 mg/kg, Bayer, France), followed by artificial ventilation. Anesthesia and sedation were controlled by monitoring heart rate and by performing paw pinch reflex and corneal reflex tests, before a thoracotomy was performed. The left main coronary artery was ligated close to its origin. After surgery, analgesia was prolonged during the awakening phase by an intramuscular injection of Beprucare (50 µg/kg). Post-infarction mortality in this mouse model is about 30–40%, primarily occurring around days 4–7 after MI. Sham-operated mice (control) were subjected to the same protocol except that the artery was not ligated. The inhibitor was administered the 8 day after MI for the indicated period. Tissue were harvested after 12 weeks after MI. Left ventricle diastolic and systolic diameters were measured in anesthetized (isofluorane 1.5%) mice, according to the American Society of Echocardiography’s leading-edge method (using Vivid 7 echograph a 14 MHz probe). In addition, LV outflow velocity was measured by pulsed waves, and CO was calculated as follows:
CO=aortic VTI×π×LV outflow diameter/2^2×heart rate, where VTI is velocity–time integral.
LV hemodynamic was assessed as described previously. Briefly, mice were anesthetized (chloral 320 mg/kg, IP) and the carotid artery cannulated with a pressure–volume catheter (SPR839, Millar-Instruments, USA) and the catheter was advanced into the LV. Pressure–volume loops were obtained at baseline and during loading by gently occluding the abdominal aorta. LV end-systolic and end-diastolic pressures, dP/dtmax/min, LV relaxation constant tau and were measured/calculated with IOX software (EMKA, France). Systolic BP was measured by tail-cuff plethysmography in trained conscious mice at weeks 8–10 using a BP2000 Visitech model. BP was measured every day in the same room at the same hour for 5 consecutive days. The BP measurements (expressed as mmHg) presented are the averages of the last 3 days.
In the MI model, heart was harvested after hemodynamics and the atria and the ventricles were separated and weighed individually. A section of the left ventricle was immersed in Bouin fixative solution. In the CKD model, kidneys were harvested and a section was immersed in paraformaldehyde fixative solution. After fixation, the sections were dehydrated and embedded in paraffin. From these sections, 5-μm thick histologic slices were obtained and were stained with Sirius Red. For the measurement of cardiac or renal collagen density, slides were examined and photographed under a light microscope (Zeiss) at 40× magnification. Collagen content was calculated as percentage of collagen area to total area of the image. Perivascular collagen was excluded from the analysis. For tubular lesions scoring, kidney slides were stained with Periodic Acid-Schiff kit (Sigma) and the score of tubules with injury (epithelial cell necrosis and detachment, and tubular dilation) was analyzed blinded to the experimental groups. […]

hNGAL = target: T1, hNGAL (Homo sapiens, UniProt P80188); assay: hNGAL-induced IL6 and Col I secretion in human cardiac fibroblasts (ELISA); assay type: cell-based; design: % inhibition versus hNGAL on IL-6 secretion: concentration or dose not given beside the values; details: for IL-6 secretion: hNGAL-treated human cardiac fibroblasts, mean ± SEM
T1 construct: purchased R&D Systems
T1 sequence (P80188 21-198): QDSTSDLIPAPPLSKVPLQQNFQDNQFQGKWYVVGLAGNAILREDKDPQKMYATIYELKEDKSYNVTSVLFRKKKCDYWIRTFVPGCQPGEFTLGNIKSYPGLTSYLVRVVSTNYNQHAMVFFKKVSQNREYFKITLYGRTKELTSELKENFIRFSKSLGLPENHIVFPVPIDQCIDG
Protocol: Primary human cardiac fibroblasts (HCF) were obtained from Promocell (Heidelberg, Germany) and maintained in Fibroblast Media 3 following manufacturer’s instructions (Promocell). Cells were used between passages 5 and 7. Cells were stimulated with recombinant hNGAL (500 ng/mL, R&D Systems) or with TGFβ (10 ng/mL, R&D Systems) for 24 h. To assess cell proliferation the MTT test was used following provider’s instructions (Roche). For protein analysis. Primary Mouse Kidney Fibroblasts (MKF) were isolated from Wild Type (WT) mice. Briefly, 8 weeks old mice were sacrificed by cervical dislocation and kidneys were cleaned and rinsed in cold DPBS (Dulbecco's Phosphate-Buffered Saline). The renal cortex was minced and incubated in Dulbecco’s modified eagle medium/Nutrient mixture F-12 (DMEM/F12, Sigma) containing 1 mg/mL collagenase A (Roche) during 25 min at 37 °C. The digestion was inactivated by adding culture medium (DMEM/F12 + 10% FBS) then the cell suspension was passed through a 100-μm cell strainer. After centrifugation, the pellet (containing MKF) was diluted with culture medium then plated in 75 cm^2 culture flask. After 24 h MKF were washed with DPBS before replacement of fresh culture medium. Thereafter, culture medium was changed every 48 h. Once 70–80% confluent, MKF were trypsinized and plated in 12 or 6-well plates. For experimental use, MKF were starved with culture medium containing only 3% FBS. MKF were treated with mNGAL (500 ng/mL, R&D Systems) or with TGFβ (10 ng/mL, R&D Systems) for 6 h for gene expression analysis.
IL6 and collagen type I concentrations were measured in cardiac tissue and cell supernatants by ELISA according to the manufacturer's instructions (R&D Systems).

Chemical stability = assay type: physicochemical
Protocol: Several parameters have been evaluated to determine ADME-Tox profile of the compounds. Two specific toxicity assays have been performed to assess hepatoxicity and cardiotoxicity. Hepatotoxicity was evaluated in isolated hepatocytes from swiss mice and determined by the thiazolyl blue tetrazolium bromide colorimetric assay (sigma, St Louis, MO, USA). Cardiotoxicity was evaluated using the commercially available Predictor hERG fluorescence polarization kit (Thermo Fisher Scientific, Illinois, USA). Several absorption, distribution, metabolism, and excretion (ADME) assays have been carried out. The following experiments were undertaken: stability in human microsomes, binding to human plasma protein, and CYP3A4 inhibition assay (Vivid CYP3A4 assay, Thermo Fisher Scientific, Illinois, USA). Physico-chemical properties were also assessed such as aqueous solubility and chemical stability.

[2] = 10 µM, human cardiac fibroblasts, Fig. 1C

Compound: CC(=O)c1cccc(S(=O)(=O)NCc2ccccc2-n2cccn2)c1 [GPZ614741]
- SV (stroke volume) ([1]; GP1 100 mg/kg/day in the food, three months, MI untreated 0.062 ± 0.005): 0.086 ± 0.004 ml/beat
- LVESD (left ventricular end systolic diameter) ([1]; GP1 100 mg/kg/day in the food, three months, MI untreated 5.47 ± 0.13): 4.90 ± 0.39 mm
- tau 1/2 (relaxation constant) ([1]; GP1 100 mg/kg/day in the food, three months, MI untreated 5.82 ± 0.32): 4.33 ± 0.21
- LVEDP ([1]; GP1 100 mg/kg/day in the food, three months, MI untreated 5.91 ± 0.49): 4.41 ± 0.57 mmHg
- LVEDD (left ventricular end diastolic diameter) ([1]; GP1 100 mg/kg/day in the food, three months, MI untreated 6.31 ± 0.12): 5.88 ± 0.39 mm
- tau e (relaxation constant) ([1]; GP1 100 mg/kg/day in the food, three months, MI untreated 7.97 ± 0.45): 6.08 ± 0.27
- LVW/TL (left ventricle weight/tibia length) ([1]; GP1 100 mg/kg/day in the food, three months, MI untreated 8.3 ± 0.3): 8.8 ± 0.6 mg/mm
- HW/TL (heart weight/tibia length) ([1]; GP1 100 mg/kg/day in the food, three months, MI untreated 10.9 ± 0.4): 11.3 ± 0.8 mg/mm
- FS (fractional shortening) ([1]; GP1 100 mg/kg/day in the food, three months, MI untreated 13.4 ± 1.0): 17.2 ± 1.3 %
- CO (cardiac output) ([1]; GP1 100 mg/kg/day in the food, three months, MI untreated 29.4 ± 1.9): 47.1 ± 3.3 mL/min
- LVESP (left ventricular end systolic pressure) ([1]; GP1 100 mg/kg/day in the food, three months, MI untreated 78.82 ± 2.76): 82.31 ± 4.22 mmHg
- LV (dP/dtmin), relaxation index ([1]; GP1 100 mg/kg/day in the food, three months, MI untreated 3117 ± 253): 4487 ± 413
- LV (dP/dtmax), contractility index ([1]; GP1 100 mg/kg/day in the food, three months, MI untreated 3894 ± 259): 4501 ± 320
- LV interstitial collagen deposition vs non-treated MI group ([1]; GP1 100 mg/kg/day in the food, Fig. 2A): significantly lower
- Infarct size in mid LV sections ([1]; GP1-treated, untreated 39.0 ± 2.3, n = 4–9, NS): 40.0 ± 1.8%
- Upregulation of cardiac IL6 protein and inflammatory markers CD68, CD80, CD86 ([1]; GP1, Fig. 2E): significantly prevented
- Upregulation of Col I, αSMA and CTGF protein levels ([1]; three months of GP1, Fig. 2B–D): significantly prevented
- Increase in IL6 secretion induced by NGAL (hNGAL; 1 µM, human cardiac fibroblasts, Fig. S3): did not prevent
- NGAL-induced Col I secretion, in words (hNGAL; [2]): fully inhibited
- NGAL-induced IL6 secretion, in words (hNGAL; [2]): fully inhibited
- IL-6 secretion (hNGAL; Table S1, first generation compounds, Control 1.0 ± 0.1, NGAL 2.21 ± 0.2): 0.86 ± 0.2
- % inhibition versus hNGAL on IL-6 secretion (hNGAL; Table S1, first generation compounds, human cardiac fibroblasts): 61.1%
- IL-6 secretion (hNGAL; Table S4, second generation compounds and parents, Control 1.00, NGAL 1.45): 0.59 ± 0.02
- % inhibition versus hNGAL on IL-6 secretion (hNGAL; Table S4, second generation compounds and parents, human cardiac fibroblasts): 59.5%
- Inhibitor effect on hNGAL-induced IL6 secretion, in words (hNGAL; human cardiac fibroblasts, text on Tables S1 and S4): important inhibitor effect
- Stability to acidic pH, in words (Chemical stability): fully stable
- Chemical Stability % (Chemical stability; Table S5): 103%

— publication PMC7844219, “Antifibrotic effect of novel neutrophil gelatinase-associated lipocalin inhibitors in cardiac and renal disease models” (Scientific Reports, 2021)
